Laboratory results from patent US9199946B2, “Pyrimidinone carboxamide inhibitors of endothelial lipase” (BRISTOL-MYERS SQUIBB COMPANY, priority 2012, dated 2015).
Where two headings read alike, the source gives them in different places.

Molecular target: T1, Endothelial lipase (EL) (Homo sapiens, UniProt Q9Y5X9)
T1 construct: HT-1080 cells, which were transformed by RAGE technology (Athersys) to overexpress endogenous EL; endogenous in cells; conditioned medium used as the enzyme source
T1 sequence (Q9Y5X9 21-500): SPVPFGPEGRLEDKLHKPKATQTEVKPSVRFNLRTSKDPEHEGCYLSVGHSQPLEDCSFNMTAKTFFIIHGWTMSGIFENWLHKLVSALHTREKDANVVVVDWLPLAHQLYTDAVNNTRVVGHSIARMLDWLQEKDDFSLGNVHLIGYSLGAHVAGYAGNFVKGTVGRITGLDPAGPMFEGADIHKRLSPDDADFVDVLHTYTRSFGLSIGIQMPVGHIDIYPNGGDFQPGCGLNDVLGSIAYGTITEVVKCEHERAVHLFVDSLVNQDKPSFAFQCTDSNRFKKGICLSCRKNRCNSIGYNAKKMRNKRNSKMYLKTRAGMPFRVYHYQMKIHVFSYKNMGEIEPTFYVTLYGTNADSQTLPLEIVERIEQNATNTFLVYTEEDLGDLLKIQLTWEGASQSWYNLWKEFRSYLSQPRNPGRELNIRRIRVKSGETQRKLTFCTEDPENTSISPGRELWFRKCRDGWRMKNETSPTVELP
Assay: Endothelial lipase (EL) enzymatic assay with fluorescent substrate A10070 in DMPG vesicles
Type: biochemical
Method: Endothelial lipase activity was measured using a fluorescent substrate, A10070, (Invitrogen, CA) doped into an artificial vesicle containing DMPG (Avanti Polar Lipids) as the excipient. Vesicles were prepared by combining 285 μL of 1 mM DMPG in a 1:1 mixture of MeOH and CHCl3 with 15 μL of 1 mM A10070 in a 1:1 mixture of MeOH and CHCl3. The mixture was dried under nitrogen and resuspended in 150 μL of 50 mM HEPES pH 8.0 buffer containing 100 mM NaCl and 0.2 mM EDTA. The sample was allowed to sit at rt for 15 min and then was sonicated 3×4 mins on ice with a Branson Sonicator using duty cycle 1. This preparation provides vesicles with a mole fraction of 0.05 for the FRET substrate.
The enzymatic assay was measured using white, opaque 96-well half area plates. Each well contained 60 μL of assay buffer (50 mM HEPES pH 8.0, 50 mM NaCl and 1 mM CaCl2) and 2 ul of a DMSO solution containing compound of interest. Conditioned media obtained from HT-1080 cells, which were transformed by RAGE technology (Athersys) to overexpress endogenous EL, was added and the reaction was allowed to incubate for 20 min at 37° C. with gentle agitation. The reaction was started by the addition of 20 μL of a 1:4 dilution of vesicles. The final total reaction volume was 100 μL. The reaction rates were measured on a Gemini plate reader with an excitation wavelength of 488 nm and an emission of 530 nm. Readings were taken every 20 seconds for 10 min with agitation between each reading. The slope of the linear portion of the readout was used to calculate the rate of the reaction.

[1] = range observed in the EL assay, read-out: EL IC50 values
[2] = conditioned media from HT-1080 cells overexpressing endogenous EL, 20 min preincubation at 37° C., read-out: EL IC50

| IC50 [1] [µM] | IC50 [2] [µM] | SMILES |
| --- | --- | --- |
| ≤ 10 | – | Nc1c(C(=O)N[C@H]2C[C@@H](c3ccccc3)c3ccccc32)[nH]c(=O)[nH]c1=O (racemic) [Example 18, 5-amino-2,6-dioxo-N-(cis-3-phenyl-2,3-dihydro-1H-inden-1-yl)-1,2,3,6-tetrahydropyrimidine-4-carboxamide] |
| ≤ 10 | – | Nc1c(C(=O)N[C@H]2CC[C@@H](NC(=O)Nc3ccccc3)CC2)[nH]c(=O)[nH]c1=O [Example 118, 5-amino-2,6-dioxo-N-(cis-4-(3-phenylureido)cyclohexyl)-1,2,3,6-tetrahydropyrimidine-4-carboxamide] |
| ≤ 10 | 0.329 | Nc1c(C(=O)N[C@@H]2CCCc3c(NS(=O)(=O)c4ccccc4)cccc32)[nH]c(=O)[nH]c1=O [Example 125, (R)-5-amino-2,6-dioxo-N-(5-(phenylsulfonamido)-1,2,3,4-tetrahydronaphthalen-1-yl)-1,2,3,6-tetrahydropyrimidine-4-carboxamide] |
| ≤ 10 | – | NC(=O)c1ccc(N2CCC(NC(=O)c3[nH]c(=O)[nH]c(=O)c3N)C2)nc1 (stereo not shown) [Example 188, 5-amino-N-(1-(5-carbamoylpyridin-2-yl)pyrrolidin-3-yl)-2,6-dioxo-1,2,3,6-tetrahydropyrimidine-4-carboxamide] |
| ≤ 10 | – | Nc1c(C(=O)NC2CCC(c3cccc(OCc4ccccc4)c3)C2)[nH]c(=O)[nH]c1=O (stereo not shown) [Example 104, 5-amino-N-(3-(3-(benzyloxy)phenyl)cyclopentyl)-2,6-dioxo-1,2,3,6-tetrahydropyrimidine-4-carboxamide] |
| ≤ 10 | – | O=C(N[C@H]1CCC[C@H](c2ccccc2)C1)c1[nH]c(=O)[nH]c(=O)c1O [Example 277, 5-hydroxy-2,6-dioxo-N-((1S,3S)-3-phenylcyclohcxyl)-1,2,3,6-tetrahydropyrimidine-4-carboxamide] |
| ≤ 10 | – | O=C(N[C@H]1CCCc2ccccc21)c1[nH]c(=O)[nH]c(=O)c1O [Example 245, (S)-5-hydroxy-2,6-dioxo-N-(1,2,3,4-tetrahydronaphthalen-1-yl)-1,2,3,6-tetrahydropyrimidine-4-carboxamide] |
| ≤ 10 | – | O=C(Nc1ccc2c(c1)CCC[C@H]2NC(=O)c1[nH]c(=O)[nH]c(=O)c1O)c1ccccc1 [Example 288, (R)-N-(6-benzamido-1,2,3,4-tetrahydronaphthalen-1-yl)-5-hydroxy-2,6-dioxo-1,2,3,6-tetrahydropyrimidine-4-carboxamide] |
| ≤ 10 | 4.89 | CC1C(NC(=O)c2[nH]c(=O)[nH]c(=O)c2N)CC2(C(C)C)CC12 (stereo not shown) [Example 57, 5-amino-N-(1-isopropyl-4-methylbicyclo[3.1.0]hexan-3-yl)2,6-dioxo-1,2,3,6-tetrahydropyrimidine-4-carboxamide] |
| ≤ 10 | – | Nc1c(C(=O)N[C@H]2CC[C@@H](c3ccc(OCc4ccccc4)cc3)CC2)[nH]c(=O)[nH]c1=O [Example 114, 5-amino-N-(cis-4-(4-(benzyloxy)phenyl)cyclohexyl)-2,6-dioxo-1,2,3,6-tetrahydropyrimidine-4-carboxamide] |
| ≤ 10 | 0.024 | CCn1c(=O)c(O)c(C(=O)N[C@H]2CC[C@@H](c3ccccc3)CC2)n(Cc2ccccc2)c1=O [Example 240, 3-Benzyl-1-ethyl-5-hydroxy-2,6-dioxo-N-(cis-4-phenylcyclohexyl)-1,2,3,6-tetrahydropyrimidine-4-carboxamide] |
| ≤ 10 | – | Nc1c(C(=O)N[C@H]2CC[C@@H](c3ccccc3)C2)[nH]c(=O)[nH]c1=O [Example 78, 5-amino-2,6-dioxo-N-((1S,3R)-3-phenylcyclopentyl)-1,2,3,6-tetrahydropyrimidine-4-carboxamide] |
| ≤ 10 | 0.01 | O=C(NC1CCCC(c2cnn(Cc3ccccc3)c2)C1)c1[nH]c(=O)[nH]c(=O)c1O (racemic) [Example 289, N-(3-(1-benzyl-1H-pyrazol-4-yl)cyclohexyl)-5-hydroxy-2,6-dioxo-1,2,3,6-tetrahydropyrimidine-4-carboxamide] |
| ≤ 10 | – | Nc1c(C(=O)NC2CCCCC2C2CCCCC2)[nH]c(=O)[nH]c1=O (stereo not shown) [Example 59, 5-amino-N-(bi(cyclohexan)-2-yl)-2,6-dioxo-1,2,3,6-tetrahydropyrimidine-4-carboxamide] |
| ≤ 10 | 3.84 | O=C(N[C@H]1CC[C@@H](c2ccccc2)CC1)c1[nH]c(=O)[nH]c(=O)c1N[C@@H]1C[C@H]2CC[C@@H]1C2 [Example 231, 5-((1R,2R,4S)-bicyclo[2.2.1]heptan-2-ylamino)-2,6-dioxo-N-(cis-4-phenylcyclohexyl)-1,2,3,6-tetrahydropyrimidine-4-carboxamide] |
| ≤ 10 | 0.019 | Nc1c(C(=O)N[C@H]2CC[C@@H](C(=O)N[C@@H]3CCCc4c(OCc5ccccc5)cccc43)C2)[nH]c(=O)[nH]c1=O [Example 136, 5-amino-N-((1S,3R)-3-((R)-5-(benzyloxy)-1,2,3,4-tetrahydronaphthalen-1-ylcarbamoyl)cyclopentyl)-2,6-dioxo-1,2,3,6-tetrahydropyrimidine-4-carboxamide] |
| ≤ 10 | – | CC(CO)Nc1c(C(=O)N[C@H]2CC[C@@H](c3ccccc3)CC2)[nH]c(=O)[nH]c1=O (stereo partly drawn) [Example 235, 5-(1-hydroxypropan-2-ylamino)-2,6-dioxo-N-(cis-4-phenylcyclohexyl)-1,2,3,6-tetrahydropyrimidine-4-carboxamide] |
| ≤ 10 | – | Nc1c(C(=O)N[C@H]2CC[C@@H](c3ccc(-c4ccccc4CO)cc3)C2)[nH]c(=O)[nH]c1=O [Example 174, 5-amino-N-((1S,3R)-3-(2′-(hydroxymethyl)biphenyl-4-yl)cyclopentyl)-2,6-dioxo-1,2,3,6-tetrahydropyrimidine-4-carboxamide] |
| ≤ 10 | – | COC(=O)C1CCCCC1NC(=O)c1[nH]c(=O)[nH]c(=O)c1N (stereo not shown) [Example 56, methyl 2-(5-amino-2,6-dioxo-1,2,3,6-tetrahydropyrimidine-4-carboxamido) cyclohexanecarboxylate] |
| ≤ 10 | – | Nc1c(C(=O)N[C@H]2CC[C@@H](c3ccccc3)CC2)n(-c2ccc(Cl)c(Cl)c2)c(=O)[nH]c1=O [Example 204, 5-amino-3-(3,4-dichlorophenyl)-2,6 dioxo-N-(cis-4-phenylcyclohexyl)-1,2,3,6-tetrahydropyrimidine-4-carboxamide] |
| ≤ 10 | – | Nc1c(C(=O)N[C@@H]2CC[C@@H](c3ccccc3)C2)[nH]c(=O)[nH]c1=O [Example 77, 5-amino-2,6-dioxo-N-((1R,3R)-3-phenylcyclopentyl)-1,2,3,6-tetrahydropyrimidine-4-carboxamide] |
| ≤ 10 | – | CCOc1cccc(C(=O)N[C@H]2CC[C@@H](NC(=O)c3[nH]c(=O)[nH]c(=O)c3N)CC2)c1 [Example 121, 5-amino-N-(cis-4-(3-ethoxybenzamido)cyclohexyl)-2,6-dioxo-1,2,3,6-tetrahydropyrimidine-4-carboxamide] |
| ≤ 10 | 0.659 | O=C(N[C@H]1CC[C@@H](c2ccccc2)CC1)c1[nH]c(=O)[nH]c(=O)c1NC1CCCC1 [Example 208, 5-(cyclopentylamino)-2,6-dioxo-N-(cis-4-phenylcyclohexyl)-1,2,3,6-tetrahydropyrimidine-4-carboxamide] |
| ≤ 10 | – | O=C(NC1CCCc2c(-c3ccccc3)cccc21)c1[nH]c(=O)[nH]c(=O)c1O (stereo not shown) [Example 285, 5-hydroxy-2,6-dioxo-N-(5-phenyl-1,2,3,4-tetrahydronaphthalen-1-yl)-1,2,3,6-tetrahydropyrimidine-4-carboxamide] |
| ≤ 10 | 0.276 | Nc1c(C(=O)NC2CCN(c3ccc(C(F)(F)F)cn3)C2)[nH]c(=O)[nH]c1=O (stereo not shown) [Example 190, 5-amino-2,6-dioxo-N-(1-(5-(trifluoromethyl)pyridin-2-yl)pyrrolidin-3-yl)-1,2,3,6-tetrahydropyrimidine-4-carboxamide] |
| ≤ 10 | – | COCCOc1ccc(C(=O)N[C@H]2CC[C@@H](NC(=O)c3[nH]c(=O)[nH]c(=O)c3N)CC2)cc1 [Example 120, 5-amino-N-(cis-4-(4-(2-methoxyethoxy)benzamido)cyclohexyl)-2,6-dioxo-1,2,3,6-tetrahydropyrimidine-4-carboxamide] |
